Biological target: T1, nanoKAZ luciferase (Oplophorus gracilirostris, UniProt Q9GV45, A31E/A60N/A81I/F95D/I117V/K70R/L54V/L99Q/M102K/N193R/P142E/Q151K/Q38R/Q45L/V71I/Y165I)
T1 construct: luciferase catalytic domain (nanoKAZ, 19 kDa) from the Oplophorus-derived luciferase; host or cells: cell-free: 1-Step Human Coupled IVT Kit, pT7CFE1-based vector
Assay: In vitro bioluminescence screening of imidazo[1,2-a]pyrazin-3(7H)-ones with nanoKAZ expressed in vitro (96-well luminometer, 2 h kinetic)
Assay type: biochemical
Conditions: furimazine = 1
Description: General protocol for the generation of solutions of imidazo[1,2-a]pyrazin-3(7H)-one Q by acidic hydrolysis of imidazo[1,2-a]pyrazin-3-yl acetate derivatives P. The considered acetate P (1 mg) was dissolved in DMSO (0.2 mL) and then diluted by adding a solution of acidic ethanol (0.3 ml) made from the addition of 37% hydrochloric acid (100 μl) on 100% ethanol (12 mL). This 0.5 mL solution was incubated at 50° C. for 2 hours to give a stock solution which was then stored at −80° C. […] Nota: these conditions are only adapted to the hydrolysis of the protecting group (as defined above) of the oxygen on position 2 of the imidazo[1,2-a]pyrazine ring system and not to the hydrolysis of any additional acetyl groups eventually present elsewhere on the substrate of this reaction.
The representative bioluminescence curves shown in the FIG. 2 provided an assessment for furimazine (Q-1), 8-benzyl-2-(furan-2-ylmethyl)-6-(4-hydroxyphenyl)imidazo[1,2-a]pyrazin-3 (7/1)-one (Q-80), 8-(2-fluorobenzyl)-2-(furan-2-ylmethyl)-6-phenylimidazo[1,2-a]pyrazin-3(7H)-one (Q-84), and 8-(2-fluorobenzyl)-2-((5-methylfuran-2-yl)methyl)-6-phenylimidazo[1,2-a]pyrazin-3(7H)-one (Q-85) was obtained using a luciferase expressed in vitro as described in the following. The nanoKAZ DNA template was cloned into Thermo Scientific pT7CFE1-based vector and nanoKAZ was expressed using ThermoFisher Scientific 1-Step Human Coupled IVT Kit—DNA (ref. 88881) according to the manufacturer instructions. The resulting reaction mix was diluted 400 times in buffer (DPBS (Gibco)+0.1% (v/v) Tween 20) and conserved at −80° C. The screening of the imidazo[1,2-a]pyrazin-3(7H)-ones was performed in 96 well plates using 50 μL/well of a 1/20 dilution in DPBS (Gibco)+0.1% (v/v) Tween 20 of the nanoKAZ solution.
To illustrate the bioluminescence properties improvement achieved for many of the imidazo[1,2-a]pyrazin-3(7H)-ones described here, four values are provided in Table 1: maximum intensity (V1), signal half-life (V2), area under the curve for ten minutes (V3), and area under the curve for two hours (V4), normalized using furimazine (Q-1) as a reference.
The bioluminescence properties of the tested compounds are considered to be improved when at least one of the values V1-V4 is above 1, and when none of the V1-V4 values is 0.05 or below.
By following the hydrolysis protocol described above, the following imidazo[1,2-a]pyrazin-3(7H)-ones luciferins Q were made in situ from the corresponding O-protected imidazo[1,2-a]pyrazines P and evaluated for their bioluminescence properties (maximum intensity (V1), signal half-life (V2), area under the curve for […], normalized using furimazine (Q-1) as a reference): […]

[1] = second table, luciferins made in situ from O-protected P

T1 sequence (Q9GV45 other isoform, or with tags, fused parts or gaps with the stated changes): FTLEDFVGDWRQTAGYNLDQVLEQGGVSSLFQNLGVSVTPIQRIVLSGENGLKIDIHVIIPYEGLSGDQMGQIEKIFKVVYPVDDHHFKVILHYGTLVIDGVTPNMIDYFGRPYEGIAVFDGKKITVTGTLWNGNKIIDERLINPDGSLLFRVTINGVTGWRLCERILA

Compound	V1: maximum intensity, normalized using furimazine (Q-1) as a reference (Table 1)	V3: area under the curve for ten minutes, normalized using furimazine (Q-1) as a reference (Table 1)	V4: area under the curve for two hours, normalized using furimazine (Q-1) as a reference (Table 1)	V3: area under the curve for 2 hours, normalized using furimazine (Q-1) as a reference (second table)	V4: area under the curve for ten minutes, normalized using furimazine (Q-1) as a reference (second table)	V1: maximum intensity, normalized using furimazine (Q-1) as a reference [1]
O=c1c(Cc2ccco2)nc2c(Cc3cccc(F)c3)[nH]c(-c3ccccc3)cn1-2 [Q-81, 8-(3-fluorobenzyl)-2-(furan-2-ylmethyl)-6-phenylimidazo[1,2-a]pyrazin-3(7H)-one]	0.82	0.92	1.31	–	–	–
CCc1ccc(Cc2nc3c(Cc4cccc(F)c4)[nH]c(-c4ccccc4)cn-3c2=O)o1 [Q-99, 2-((5-ethylfuran-2-yl)methyl)-8-(3-fluorobenzyl)-6-phenylimidazo[1,2-a]pyrazin-3(7H)-one]	1.99	2.13	2.08	–	–	–
O=c1c(Cc2cccc(F)c2)nc2c(Cc3ccccc3)[nH]c(-c3ccccc3)cn1-2 [Q-41, 8-benzyl-2-(3-fluorobenzyl)-6-phenylimidazo[1,2-a]pyrazin-3(7H)-one]	1.49	1.28	0.74	–	–	–
CCCc1ccc(Cc2nc3c(Cc4ccccc4)[nH]c(-c4ccccc4)cn-3c2=O)o1 [Q-133, 8-benzyl-6-phenyl-2-((5-propylfuran-2-yl)methyl)imidazo[1,2-a]pyrazin-3(7H)-one]	–	–	–	1.23	1.33	1.26
Cc1cccc(Cc2nc3c(Cc4ccccc4)[nH]c(-c4ccccc4)cn-3c2=O)c1 [Q-14, 8-benzyl-2-(3-methylbenzyl)-6-phenylimidazo[1,2-a]pyrazin-3(7H)-one]	1.8	1.66	0.96	–	–	–
O=c1c(Cc2ccc(C(F)(F)F)o2)nc2c(Cc3ccccc3)[nH]c(-c3ccccc3)cn1-2 [Q-28, 8-benzyl-6-phenyl-2-((5-(trifluoromethyl)furan-2-yl)methyl)imidazo[1,2-a]pyrazin-3(7H)-one]	1.31	1.11	0.62	–	–	–
CCc1ccc(Cc2nc3c(Cc4ccccc4)[nH]c(-c4ccccc4F)cn-3c2=O)o1 [Q-51, 8-benzyl-2-((5-ethylfuran-2-yl)methyl)-6-(2-fluorophenyl)imidazo[1,2-a]pyrazin-3(7H)-one]	2.59	2.33	1.19	–	–	–
CCc1cc(Cc2nc3c(Cc4cccc(F)c4F)[nH]c(-c4ccccc4)cn-3c2=O)oc1C [Q-135, 8-(2,3-difluorobenzyl)-2-((4-ethyl-5-methylfuran-2-yl)methyl)-6-phenylimidazo[1,2-a]pyrazin-3(7H)-one]	–	–	–	0.51	1.19	1.26
Cc1cc(Cc2nc3c(Cc4ccccc4)[nH]c(-c4ccccc4F)cn-3c2=O)oc1C [Q-61, 8-benzyl-2-((4,5-dimethylfuran-2-yl)methyl)-6-(2-fluorophenyl)imidazo[1,2-a]pyrazin-3(7H)-one]	2.13	1.97	0.78	–	–	–
COc1cccc(Cc2nc3c(Cc4ccccc4F)[nH]c(-c4ccccc4)cn-3c2=O)c1 [Q-83, 8-(2-fluorobenzyl)-2-(3-methoxybenzyl)-6-phenylimidazo[1,2-a]pyrazin-3(7H)-one]	1.46	1.49	1.12	–	–	–
O=c1c(Cc2ccco2)nc2c(Cc3ccccc3)[nH]c(-c3ccccc3F)cn1-2 [Q-21, 8-benzyl-6-(2-fluorophenyl)-2-(furan-2-ylmethyl)imidazo[1,2-a]pyrazin-3(7H)-one]	1.39	1.33	1.08	–	–	–
O=c1c(Cc2ccccc2)nc2c(Cc3cccc(F)c3F)[nH]c(-c3ccccc3)cn1-2 [Q-117, 2-benzyl-8-(2,3-difluorobenzyl)-6-phenylimidazo[1,2-a]pyrazin-3(7H)-one]	–	–	–	1.94	0.7	2.31
O=c1c(Cc2ccccc2)nc2c(Cc3cccc(F)c3)[nH]c(-c3ccccc3)cn1-2 [Q-73, 2-benzyl-8-(3-fluorobenzyl)-6-phenylimidazo[1,2-a]pyrazin-3(7H)-one]	1.12	1.19	0.92	–	–	–
Cc1ccc(Cc2nc3c(Cc4cccc(F)c4)[nH]c(-c4ccccc4F)cn-3c2=O)o1 [Q-105, 8-(3-fluorobenzyl)-6-(2-fluorophenyl)-2-((5-methylfuran-2-yl)methyl)imidazo[1,2-a]pyrazin-3(7H)-one]	–	–	–	2.01	1.72	2.04
Cc1ccc(Cc2nc3c(Cc4ccccc4)[nH]c(-c4cccc(F)c4)cn-3c2=O)o1 [Q-54, 8-benzyl-6-(3-fluorophenyl)-2-((5-methylfuran-2-yl)methyl)imidazo[1,2-a]pyrazin-3(7H)-one]	2.73	2.32	1.22	–	–	–
Cc1ccc(Cc2nc3c(Cc4cccc(F)c4)[nH]c(-c4ccccc4)cn-3c2=O)o1 [Q-97, 8-(3-fluorobenzyl)-2-((5-methylfuran-2-yl)methyl)-6-phenylimidazo[1,2-a]pyrazin-3(7H)-one]	2.04	2.20	2.04	–	–	–
O=c1c(Cc2ccco2)nc2c(Cc3ccccc3)[nH]c(-c3cccc(O)c3)cn1-2 [Q-149, 8-benzyl-2-(furan-2-ylmethyl)-6-(3-hydroxyphenyl)imidazo[1,2-a]pyrazin-3(7H)-one]	–	–	–	0.85	1.05	1.12
Cc1cccc(Cc2nc3c(Cc4cccc(F)c4)[nH]c(-c4ccccc4)cn-3c2=O)c1 [Q-100, 8-(3-fluorobenzyl)-2-(3-methylbenzyl)-6-phenylimidazo[1,2-a]pyrazin-3(7H)-one]	1.25	1.33	1.04	–	–	–
Cc1ccc(Cc2nc3c(Cc4c(F)cccc4F)[nH]c(-c4ccccc4)cn-3c2=O)o1 [Q-121, 8-(2,6-difluorobenzyl)-2-((5-methylfuran-2-yl)methyl)-6-phenylimidazo[1,2-a]pyrazin-3(7H)-one]	–	–	–	1.43	1.37	1.41
CCc1ccc(Cc2nc3c(Cc4ccccc4F)[nH]c(-c4ccccc4)cn-3c2=O)o1 [Q-96, 2-((5-ethylfuran-2-yl)methyl)-8-(2-fluorobenzyl)-6-phenylimidazo[1,2-a]pyrazin-3(7H)-one]	2.51	2.68	1.98	–	–	–

— patent US12612411B1, “Imidazopyrazine derivatives, process for preparation thereof, and their uses as luciferins” (INSTITUT PASTEUR, priority 2017, dated 2026)
